Data: patent publication US6608082B1, “Treatment of erectile dysfunction using isoquinoline compound melanocortin receptor ligands” (Lion Bioscience AG, priority 1998, dated 2003)
Like-named read-outs stand apart in the source and are kept apart here. Values belong to the molecule of their own block, whether it stands above or below them.

Key:
MCR-1 = target: T1, MCR-1 (Homo sapiens, UniProt Q01726); experiment: Melanocortin receptor binding assay, competition with 125I-HP 467, HEK 293 cells expressing hMCR-1; settings: read-out: MC-1 IC50
T1 construct: expressed in transfected cells; host or cells: HEK 293
Procedure, shortened: (§1)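 Test compounds compete on intact HEK 293 cells carrying hMCR-1 (2×10^4 per tube) or hMCR-4 (4×10^3 per tube), suspended in PBS, 10% calf serum, 1 mM CaCl2.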

MCR-4 = target: T2, MCR-4 (Homo sapiens, UniProt P32245); experiment: Melanocortin receptor binding assay, competition with 125I-HP 467, HEK 293 cells expressing hMCR-4; settings: for IC50: read-out: MC-4 IC50
T2 construct: expressed in transfected cells; host or cells: HEK 293
Procedure, shortened: as §1

[1] = inhibition of binding of 125I-HP 467, HEK 293 cells expressing MCR-1, TRG 2414 library
[2] = inhibition of binding of 125I-HP 467, HEK 293 cells expressing MCR-4, TRG 2414 library
[3] = TRG 2414 library, inhibition of binding of 125I-HP 467, HEK 293 cells expressing MCR-1
[4] = TRG 2414 library, inhibition of binding of 125I-HP 467, HEK 293 cells expressing MCR-4
[5] = inhibition of binding of 125I-HP 467, HEK 293 cells expressing MCR-1
[6] = inhibition of binding of 125I-HP 467, HEK 293 cells expressing MCR-4
[7] = TRG 2406 and TRG 2407 libraries, inhibition of binding of 125I-HP 467
[8] = TRG 2408 and TRG 2409 libraries, inhibition of 125I-HP 467 binding
[9] = competition with 125I-HP 467, HEK 293 cells expressing MCR-1
[10] = competition with 125I-HP 467, HEK 293 cells expressing MCR-4

T1 sequence (Q01726 whole entry): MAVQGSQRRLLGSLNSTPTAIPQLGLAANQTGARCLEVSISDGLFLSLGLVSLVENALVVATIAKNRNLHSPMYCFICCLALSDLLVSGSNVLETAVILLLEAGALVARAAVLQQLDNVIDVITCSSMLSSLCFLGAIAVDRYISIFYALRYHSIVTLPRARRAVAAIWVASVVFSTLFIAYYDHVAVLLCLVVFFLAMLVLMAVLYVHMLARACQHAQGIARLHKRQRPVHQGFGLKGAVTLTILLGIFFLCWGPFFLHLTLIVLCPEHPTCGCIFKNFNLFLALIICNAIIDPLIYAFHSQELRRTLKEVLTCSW
T2 sequence (P32245 whole entry): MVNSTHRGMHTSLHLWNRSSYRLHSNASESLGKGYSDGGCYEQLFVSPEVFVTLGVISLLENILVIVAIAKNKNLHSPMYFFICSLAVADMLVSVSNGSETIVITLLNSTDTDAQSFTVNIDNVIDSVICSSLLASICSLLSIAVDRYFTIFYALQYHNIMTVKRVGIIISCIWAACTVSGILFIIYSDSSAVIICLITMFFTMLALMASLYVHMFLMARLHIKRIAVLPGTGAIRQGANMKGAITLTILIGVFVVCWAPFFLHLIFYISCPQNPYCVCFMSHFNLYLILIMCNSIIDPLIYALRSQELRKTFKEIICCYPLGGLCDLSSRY

Compound: COc1ccc(CCNCC2c3ccccc3CN(CCCCC(CN)NCc3ccccc3)C2c2ccccc2Br)cc1 (stereo not shown) [Cmpd 227]
- IC50 (MCR-1; [3]): 4490 nM
- IC50 (MCR-4; [4]): 3.71 µM

Compound: CCOc1ccc(CCNCC2c3ccccc3CN(CCCCC(CN)NCc3ccc(Br)cc3)C2c2cc(C(F)(F)F)cc(C(F)(F)F)c2)cc1 (stereo not shown) [TRG 2421-23]
- IC50 (MCR-1; [5]): 7440 nM
- IC50 (MCR-4; [6]): 8.22 µM

Compound: COc1ccc(CNCC2c3ccccc3CN(CCCCC(CN)NCCc3ccccc3)C2c2ccccc2Br)cc1 (stereo not shown) [Cmpd 222]
- IC50 (MCR-1; [3]): 5050 nM
- IC50 (MCR-4; [4]): 4.78 µM

Compound: COc1ccc(CCNCC2c3ccccc3CN(CCCCC(CN)NCCc3ccccc3)C2c2cc(C(F)(F)F)cc(C(F)(F)F)c2)cc1 (stereo not shown) [TRG 2414-66]
- IC50 (MCR-1; [1]): 10500 nM
- IC50 (MCR-4; [2]): 3.2 µM

Compound: CCCOc1ccc(C2C(CNC3CCCCCC3)c3ccccc3CN2CCCCC(CN)NCc2ccccc2)cc1 (stereo not shown) [Cmpd 195]
- IC50 (MCR-1; [3]): 1380 nM
- IC50 (MCR-4; [4]): 4.07 µM

Compound: NCCNC(CN)CCCN1Cc2ccccc2C(CNC2CCCCC2)C1c1ccc(Cl)cc1Cl (stereo not shown) [TRG 2408-73]
- IC50 (MCR-1; [8]): 1080 nM
- IC50 (MCR-4; [8]): 4.05 µM

Compound: CCNc1ccc(C2C(CN)c3ccccc3CN2CCCC(CN)NCCCCNc2ccccc2)cc1 (stereo not shown) [TRG 2419-9]
- IC50 (MCR-1; [5]): 239 nM
- IC50 (MCR-4; [6]): 10 µM

Compound: NCC(N)CCCCN1Cc2ccccc2C(CNC2CCCCCC2)C1c1ccc(Oc2ccccc2)cc1 (stereo not shown) [TRG 2414-153]
- IC50 (MCR-1; [1]): 772 nM
- IC50 (MCR-4; [2]): 4.09 µM

Compound: CCNc1ccc(C2C(CNCCc3ccccc3)c3ccccc3CN2CCCC(CN)NCCOCCNCc2ccccc2)cc1 (stereo not shown) [TRG 2420-10]
- IC50 (MCR-1; [5]): 55 nM
- IC50 (MCR-4; [6]): 0.94 µM

Compound: NCC(CCCCN1Cc2ccccc2C(CNCCc2ccc(O)cc2)C1c1cc(C(F)(F)F)cc(C(F)(F)F)c1)NCc1ccccc1 (stereo not shown) [TRG 2421-6]
- IC50 (MCR-1; [5]): 2250 nM
- IC50 (MCR-4; [6]): 0.76 µM

More lines, now with the values ahead:

- IC50 (MCR-1; [1]): 42600 nM
- MC-4 IC50 (MCR-4; [2]): no fit
Compound: COc1ccccc1CCNCC1c2ccccc2CN(CCCCC(CN)NCC(C)c2ccc(CC(C)C)cc2)C1c1cccc(Oc2ccccc2)c1 (mixture of isomers) [TRG 2414-92]

- IC50 (MCR-1; [7]): 3660 nM
- IC50 (MCR-4; [7]): 2.1 µM
Compound: CNC(CN)CN1Cc2ccccc2C(CNCc2ccccc2O)C1c1cccc(Oc2ccccc2)c1 (stereo not shown) [TRG 2406-9]

- IC50 (MCR-1; [1]): 5010 nM
- IC50 (MCR-4; [2]): 4.77 µM
Compound: NCC(CCCCN1Cc2ccccc2C(CNC2CCCCC2)C1c1cccc(Oc2ccccc2)c1)NCc1ccccc1 (stereo not shown) [TRG 2414-119]

- IC50 (MCR-1; [1]): 23700 nM
- IC50 (MCR-4; [2]): 27 µM
Compound: CC(C)Cc1ccc(C(C)CNC(CN)CCCCN2Cc3ccccc3C(CNC3CCCCC3)C2c2cc(C(F)(F)F)cc(C(F)(F)F)c2)cc1 (stereo not shown) [TRG 2414-80]

- IC50 (MCR-1; [7]): 2120 nM
- IC50 (MCR-4; [7]): 1.79 µM
Compound: CCn1c2ccccc2c2cc(C3C(CNCc4ccccc4O)c4ccccc4CN3CCCCC(CN)NC)ccc21 (stereo not shown) [TRG 2406-22]

- IC50 (MCR-1; [1]): 33 nM
- IC50 (MCR-4; [2]): 5.21 µM
Compound: COc1ccc(CCNCC2c3ccccc3CN(CCCCC(CN)NCc3ccccc3)C2c2cc(C(F)(F)F)cc(C(F)(F)F)c2)cc1 (stereo not shown) [TRG 2414-67]

- IC50 (MCR-1; [7]): 640 nM
- IC50 (MCR-4; [7]): 0.77 µM
Compound: CNC(CN)CCCCN1Cc2ccccc2C(CNC2CCCCCC2)C1c1ccc(Cl)cc1Cl (stereo not shown) [TRG 2407-29]

- IC50 (MCR-1; [9]): 180 nM
- IC50 (MCR-4; [10]): 1.38 µM
Compound: CCCCNc1ccc(C2C(CNCCc3ccccc3)c3ccccc3CN2CCCCC(CN)NCc2ccc(Cl)cc2)cc1 (stereo not shown) [TRG 2411-81]

- IC50 (MCR-1; [8]): 3690 nM
- IC50 (MCR-4; [8]): 12.3 µM
Compound: NCC(CCCCN1Cc2ccccc2C(CNC2CCCCC2)C1c1ccc(-c2ccccc2)cc1)NCCc1ccccc1 (stereo not shown) [TRG 2408-52]

- IC50 (MCR-1; [9]): 290 nM
- IC50 (MCR-4; [10]): 1.46 µM
Compound: CCCCNc1ccc(C2C(CNCCc3ccccc3)c3ccccc3CN2CCCCC(CN)NCc2ccc(OC)cc2)cc1 (stereo not shown) [TRG 2411-82]

- IC50 (MCR-1; [8]): 690 nM
- IC50 (MCR-4; [8]): 35.2 µM
Compound: CCNc1ccc(C2C(CNC3CCCCC3)c3ccccc3CN2CCCC(N)CN)cc1 (stereo not shown) [TRG 2408-61]

- IC50 (MCR-1; [1]): 9640 nM
- IC50 (MCR-4; [2]): 6.76 µM
Compound: COc1cccc(CNCC2c3ccccc3CN(CCCCC(CN)NCc3ccccc3)C2c2cc(C(F)(F)F)cc(C(F)(F)F)c2)c1 (stereo not shown) [TRG 2414-59]

- IC50 (MCR-1; [9]): 420 nM
- IC50 (MCR-4; [10]): 1.73 µM
Compound: NCC(CCCCN1Cc2ccccc2C(CNC2CCCCC2)C1c1ccc(-c2ccccc2)cc1)NCc1ccccc1 (stereo not shown) [TRG 2411-22]
